Assays:
Candida albicans = test: Test 3: growth of Candida albicans in extracellular product of Ess-1 combined with additive, visual turbidity; format: cell-based; settings: additive 50 mM combined with supernatant from Ess-1, pH adjusted to pKa of the acid, 20 hours 37° C.
Procedure: Ess-1 was grown to stationary phase in dMRSs broth (MRS broth without addition of sodium acetate). The bacterial culture was centrifuged to pellet the cells and sterile filtered using a 0,22 μm filter (MILLIPORE filter, Bedford, USA) whereupon the supernatant comprising the extracellular product was obtained. […] Wells containing strong growth of Candida in pure dMRSs-broth was graduated as five, while wells with no visual growth were graduated as zero.

[1] = system: Candida albicans (C. albicans 702); test: Test 1: growth of Candida albicans in extracellular product of LB 931 with additives, micro titre plate, visual turbidity; format: cell-based; settings: additive 50 mM in combination with extracellular product of LB 931, pH 3.4±0.2, 37° C. 24 hrs
Procedure: The purpose of this test was to determine whether selected additives affect the growth of Candida albicans and if an improved growth inhibition can be achieved when they are added to the extracellular products of Lactobacillus plantarum, LB 931. The additives used in this test were ascorbic acid, citric acid, phenylalanine, acetic acid, propionic acid and sodium propionate.
A clinical isolate of Candida albicans (designated C. albicans 702) was used as test strain. It was isolated from the vagina of a person with vaginal candidiasis.
As control pure dMRSs broth (MRS broth without addition of sodium acetate) was used. A specified volume was transferred to wells of a micro titre plate and was let to air dry (45° C. minimum of 20 hrs).
Cultures of LB 931 grown in dMRSs broth were centrifuged to pellet the cells and sterile filtered using a 0,22 μm filter (MILLIPORE filter, Bedford, USA) in order to obtain the LB 931 supernatant com prising the LB 931 extracell War product. […]
The test was blinded so that there could be no preconceived opinions colouring the results. The inhibition of Candida was evaluated and graduated, by two persons using a template, on a scale from five to zero based on visual observations of turbidity with a calculated mean value being presented. […]

Compound	inhibition of Candida albicans (Candida albicans)	growth inhibiting effect on Candida (growth graded five to zero by turbidity) [1]
O=C1O[C@H]([C@@H](O)CO)C(O)=C1O [ascorbic acid]	increased inhibition	
CCC(=O)O [propionic acid]		no growth at all
